Measured values as given in the NIST ThermoML archive (doi:10.1016/j.fluid.2015.04.017).
Numbers after ± are expanded uncertainties.

Assay: xn = mol fraction of the nth substance listed
Conditions: 101 kPa, Liquid; for viscosity: Concentric cylinders viscometry; for mass density: Vibrating tube method

CCOC(=O)C(C)O (stereo not drawn) [DL-ethyl lactate] + CCC(C)=O
Conditions	mass density, 308.15 K [kg/m3]	mass density, 313.15 K [kg/m3]	mass density, 318.15 K [kg/m3]	mass density, 323.15 K [kg/m3]	viscosity, 308.15 K [mPa·s]	viscosity, 313.15 K [mPa·s]	viscosity, 318.15 K [mPa·s]	viscosity, 323.15 K [mPa·s]
x1 = 0.0999	818.947 ± 0.15	813.582 ± 0.15	808.184 ± 0.16	802.753 ± 0.16	0.4211 ± 0.0059	0.4001 ± 0.0058	0.3798 ± 0.0056	0.3598 ± 0.0055
x1 = 0.1999	847.072 ± 0.15	841.677 ± 0.15	836.25 ± 0.16	830.788 ± 0.16	0.4939 ± 0.0065	0.4671 ± 0.0063	0.4415 ± 0.0061	0.4212 ± 0.0059
x1 = 0.3001	873.449 ± 0.15	868.027 ± 0.15	862.576 ± 0.16	857.09 ± 0.16	0.5848 ± 0.0073	0.5492 ± 0.007	0.5165 ± 0.0067	0.4897 ± 0.0065
x1 = 0.4001	898.112 ± 0.16	892.67 ± 0.16	887.197 ± 0.16	881.694 ± 0.16	0.6909 ± 0.0082	0.6463 ± 0.0078	0.6052 ± 0.0075	0.5699 ± 0.0072
x1 = 0.5	921.146 ± 0.16	915.688 ± 0.16	910.198 ± 0.17	904.683 ± 0.17	0.8175 ± 0.0093	0.7602 ± 0.0088	0.709 ± 0.0084	0.6649 ± 0.008
x1 = 0.5998	942.923 ± 0.17	937.45 ± 0.17	931.944 ± 0.17	926.419 ± 0.17	0.9624 ± 0.011	0.8883 ± 0.01	0.8229 ± 0.0094	0.7673 ± 0.0089
x1 = 0.6999	963.714 ± 0.18	958.226 ± 0.18	952.707 ± 0.18	947.168 ± 0.18	1.138 ± 0.012	1.042 ± 0.011	0.9589 ± 0.011	0.8872 ± 0.01
x1 = 0.8	983.356 ± 0.2	977.854 ± 0.2	972.323 ± 0.2	966.77 ± 0.2	1.345 ± 0.014	1.222 ± 0.013	1.116 ± 0.012	1.028 ± 0.011
x1 = 0.9001	1001.5 ± 0.21	995.984 ± 0.21	990.445 ± 0.21	984.879 ± 0.21	1.595 ± 0.017	1.436 ± 0.015	1.3 ± 0.014	1.193 ± 0.013
x1 = 1	1017.42 ± 0.24	1011.9 ± 0.24	1006.36 ± 0.23	1000.79 ± 0.23	1.858 ± 0.02	1.658 ± 0.018	1.491 ± 0.016	1.349 ± 0.015
